Results taken from patent US20200022386A1, “METHOD OF PREPARATION OF CA[…]” (PHARCON INC., priority 2018, published 2020).
≈ marks a conversion by molar mass, not a printed value.

Assay: Solubility of cannabinoids / cannabis extract in ethanol
Assay type: physicochemical
Settings: organic solvent or mixture, room temperature, ethyl alcohol (solvent named)
From the text: Cannabinoids have extremely low water solubility and relatively high solubility in oils and polar organic solvents such as ethanol and propylene glycol. Micro- and nanoemulsions or liposomal formulations where cannabinoids incorporated into lipid phase of the colloidal dispersion can be efficiently used for preparation of cannabis loaded products. Nevertheless, for preparation of beverages with high content of biologically active cannabis components may be complicated since solubility in the oil phase may not be high enough to provide the desired concentration of cannabinoids in the prepared beverage while keeping the product stable and palatable. Additionally, terpenes presented in extract of cannabis, visibly improve solubility of cannabinoids while pure CBD, THC or other cannabinoids have much lower solubility. […] However, since cannabis terpenes are often associated with acrid and unpleasant taste and flavor, it is preferable to use purified cannabinoids with a potency (purity) of 90-100%.
Practically all proposed SNEDS formulations of cannabinoids have oil phase consisting of food oils, mainly mono-di or triglycerides, such as medium chain triglycerides (MCT oil, coconut oil), fish oil, soy oil, olive oil, acetylated mono-and diglycerides, etc. The food oils have excellent safety profile and can provide a reasonable solubility of cannabinoids. […]

SMILES: C=C(C)[C@@H]1CCC(C)=C[C@H]1c1c(O)cc(CCCCC)cc1O [CBD, Cannabidiol]
- solubility: 25 to 36 mg/mL (≈ 79.5 to 114 mM)
